{"source": "patent US5672603A", "about": "“Apoptosis regulating composition” (Otsuka Pharmaceutical Co., Ltd., priority 1991, dated 1997)", "key": {"apoptosis": {"tested_on": "apoptosis", "details": "literature; cited from earlier work"}, "HL-60 cells [1]": {"tested_on": "HL-60 cells", "assay": "HL-60 cell growth inhibition, 3 days", "format": "cell-based", "details": "Homo sapiens, HL-60, 72 h, 30 μg/ml, read-out: Cell growth inhibiting effect (%)", "experimental": "(§1) HL-60 cells were cultivated in RPMI-1640 medium supplemented with 10% of FCS at 37° C. under 5% CO2, and the cell concentration was adjusted to 5×10^4 cells/ml.\n(§2) Then, the above-mentioned medium containing 30 μg/ml of each test compound was added to each well of 6-well microplates (Costar), followed by 3 days of incubation at 37° C. under 5% CO2. In a control group, the above medium alone was added and incubation was performed in the same manner. Thereafter, each cultured cell suspension was sampled into an Eppendorf tube and, after staining with 0.2% trypan blue-containing phosphate buffer, viable cells were counted using a hematocytometer."}, "HL-60 cells [2]": {"tested_on": "HL-60 cells", "assay": "Induction of differentiation of HL-60 cells (CD11b expression, flow cytometry)", "format": "cell-based, human", "design": "reference not given here", "details": "30 μg/ml; 3 days; CD11b fluorescence", "experimental": "as §1, §2\nThe above cells were adjusted to 1×10^7 cells/ml. To 100 μl of the cell suspension was added 5 μl of a solution of fluorescein isothiocyanate (FITC)-labeled anti-human CD11b antibody (Mol; Coulter) and the reaction was allowed to proceed on ice in the dark for 30 minutes. Then, cells were washed twice with PBS (phosphate-buffered saline; Nissui Pharmaceutical) containing 0.1% of BSA (bovine serum albumin; Sigma), finally suspended in 500 μl of the BSA-containing PBS and measured for fluorescence intensity by flow cytometry using Profile II (Coulter)."}, "lymphocytic tumor cells": {"tested_on": "lymphocytic tumor cells", "details": "X-ray radiation; literature; cited from earlier work"}, "HL-60 cells [3]": {"tested_on": "HL-60 cells", "details": "literature; cited from earlier work"}, "[4]": {"tested_on": "small intestine crypt cells", "details": "literature; cited from earlier work"}, "acute leukemia cells": {"tested_on": "acute leukemia cells", "details": "literature; cited from earlier work"}, "sympathetic nerve cells": {"tested_on": "sympathetic nerve cells", "details": "literature; cited from earlier work"}, "[5]": {"tested_on": "aged rats with learning disorder", "details": "literature; cited from earlier work"}, "PC12 cells": {"tested_on": "PC12 cells", "assay": "Effect on PC12 cells (morphology, phase contrast microscope)", "details": "NGF alone group, 0.3% FCS", "quoted_text": "PC12 cells subcultured in Dulbecco's modified Eagle's medium (D-MEM) supplemented with 5% heat-inactivated (56° C., 30 minutes) horse serum and 10% fetal calf serum (FCS) were transferred onto collagen-coatedplastic Petri dishes (35 mm in diameter) at a concentration of 6×10^4 cells/3 ml medium."}, "nerve cells": {"tested_on": "nerve cells", "details": "administration in advance; literature; cited from earlier work"}}, "note": "Numbered stars: 1 amine (or outer) side, 2 acyl side, 3 side chain; on linkers, the order of the positions; unused ones are H or OH. Bridge positions count the residues as written; N and C are the ends. Square brackets hold non-standard residues; d marks the D form. Peptide text beside a SMILES is read from it. I, II: the chains in the order shown. Actinocin(9to1) = Cc1c2oc3c(C)ccc(C(=O)[*:1])c3nc-2c(C(=O)[*:2])c(N)c1=O; NMeV = CN[C@H](C(=O)O)C(C)C; Sar = CNCC(=O)O", "data": [{"molecule": "bcl-2 gene product: bcl-2 gene product", "values": [{"measurement": "Repression of apoptosis", "setting": "apoptosis", "result": "repress apoptosis"}]}, {"molecule": "COc1ccc(C(=O)N2CCN(c3cccc4c3NC(=O)CC4)CC2)cc1OC", "note": "[Compound 8, 8-[4-(3,4-Dimethoxybenzoyl)-1-piperazinyl]-3,4-dihydrocarbostyril]", "values": [{"measurement": "inhibition at 30 µg/mL", "setting": "HL-60 cells [1]", "result": 24.9, "unit": "%"}, {"measurement": "Induction of differentiation promoting effect", "setting": "HL-60 cells [2]", "result": 344}]}, {"molecule": "COc1ccc(C(=O)N2CCN(c3ccc4c(c3)NC(=O)CC4)CC2)cc1OC", "note": "[Compound 4, 7-[4-(3,4-Dimethoxybenzoyl)-1-piperazinyl]-3,4-dihydrocarbostyril]", "values": [{"measurement": "Induction of differentiation promoting effect", "setting": "HL-60 cells [2]", "result": 383}]}, {"molecule": "Cc1c2oc3c(C)ccc(C(=O)N[C@@H]4C(=O)N[C@H](C(C)C)C(=O)N5CCC[C@H]5C(=O)N(C)CC(=O)N(C)[C@@H](C(C)C)C(=O)O[C@@H]4C)c3nc-2c(C(=O)N[C@@H]2C(=O)N[C@H](C(C)C)C(=O)N3CCC[C@H]3C(=O)N(C)CC(=O)N(C)[C@@H](C(C)C)C(=O)O[C@@H]2C)c(N)c1=O", "note": "[actinomycin D] (I: T[dV]P[Sar][NMeV] / II: T[dV]P[Sar][NMeV]; ester I:1-I:C, II:1-II:C; linker I:N-II:N via Actinocin(9to1))", "values": [{"measurement": "Repression of apoptosis", "setting": "apoptosis", "result": "capable of repressing apoptosis"}, {"measurement": "Apoptosis of lymphocytic tumor cells", "setting": "lymphocytic tumor cells", "result": "potentiates"}, {"measurement": "Apoptosis induction in HL-60 cells", "setting": "HL-60 cells [3]", "result": "apoptosis induction"}, {"measurement": "Apoptosis induction in small intestine crypt cells", "setting": "[4]", "result": "apoptosis induction"}]}, {"molecule": "C[C@@H]1C[C@@H]([C@H](O)CC2CC(=O)NC(=O)C2)C(=O)[C@@H](C)C1", "note": "[cycloheximide]", "values": [{"measurement": "Repression of apoptosis", "setting": "apoptosis", "result": "capable of repressing apoptosis"}, {"measurement": "Apoptosis induction in acute leukemia cells", "setting": "acute leukemia cells", "result": "apoptosis induction"}, {"measurement": "Apoptosis of lymphocytic tumor cells", "setting": "lymphocytic tumor cells", "result": "suppresses"}, {"measurement": "Apoptosis induction in HL-60 cells", "setting": "HL-60 cells [3]", "result": "apoptosis induction"}]}, {"molecule": "COc1cc(C(=O)N2CCN(c3ccc4c(c3)NC(=O)CC4)CC2)cc(OC)c1OC", "note": "[Compound 3, 7-[4-(3,4,5-Trimethoxybenzoyl)-1-piperazinyl]-3,4-dihydrocarbostyril]", "values": [{"measurement": "Induction of differentiation promoting effect", "setting": "HL-60 cells [2]", "result": 384}]}, {"molecule": "CCOc1ccc(C(=O)N2CCN(c3ccc4c(c3)CCC(=O)N4)CC2)cc1", "note": "[Compound 5, 6-[4-(4-Ethoxybenzoyl)-1-piperazinyl]-3,4-dihydrocarbostyril]", "values": [{"measurement": "Induction of differentiation promoting effect", "setting": "HL-60 cells [2]", "result": 232}]}, {"molecule": "COc1ccc(C(=O)N2CCN(c3ccc4[nH]c(=O)ccc4c3)CC2)cc1OC", "note": "[Compound 7, 6-[4-(3,4-Dimethoxybenzoyl)-1-piperazinyl]carbostyril]", "values": [{"measurement": "inhibition at 30 µg/mL", "setting": "HL-60 cells [1]", "result": 24.1, "unit": "%"}, {"measurement": "Induction of differentiation promoting effect", "setting": "HL-60 cells [2]", "result": 898}]}, {"molecule": "COc1cc(C(=O)N2CCN(c3ccc4c(c3)CCC(=O)N4)CC2)cc(OC)c1OC", "note": "[Compound 2, 6-[4-(3,4,5-Trimethoxybenzoyl)-1-piperazinyl]-3,4-dihydrocarbostyril]", "values": [{"measurement": "inhibition at 30 µg/mL", "setting": "HL-60 cells [1]", "result": 20.2, "unit": "%"}]}, {"molecule": "COc1ccc(C(=O)N2CCN(c3cccc4c3CCC(=O)N4)CC2)cc1OC", "note": "[Compound 6, 5-[4-(3,4-Dimethoxybenzoyl)-1-piperazinyl]-3,4-dihydrocarbostyril]", "values": [{"measurement": "Induction of differentiation promoting effect", "setting": "HL-60 cells [2]", "result": 303}]}, {"molecule": "GM-CSF: granulocyte macrophage colony stimulating factor", "values": [{"measurement": "Repression of apoptosis", "setting": "apoptosis", "result": "repress apoptosis"}]}, {"molecule": "NGF: nerve growth factor (NGF, Wako Pure Chemical)", "values": [{"measurement": "Programmed death of sympathetic nerve cells", "setting": "sympathetic nerve cells", "result": "can inhibit programmed death of sympathetic nerve cells"}, {"measurement": "Recovery from learning disorder", "setting": "[5]", "result": "can recover from learning disorder"}, {"measurement": "Formation of nerve-like processes, NGF stimulation", "setting": "PC12 cells", "result": "formation of nerve-like processes"}, {"measurement": "Nerve cell death in development stage", "setting": "nerve cells", "result": "complete inhibition of nerve cell death"}]}, {"molecule": "G-CSF: granulocyte colony stimulating factor (protein, UniProt P09919 31-207, looked up) Granulocyte …: TPLGPASSLPQSFLLKCLEQVRKIQGDGAALQEKLVSECATYKLCHPEELVLLGHSLGIPWAPLSSCPSQALQLAGCLSQLHSGLFLYQGLLQALEGISPELGPTLDTLQLDVADFATTIWQQMEELGMAPALQPTQGAMPAFASAFQRRAGGVLVASHLQSFLEVSYRVLRHLAQP", "values": [{"measurement": "Repression of apoptosis", "setting": "apoptosis", "result": "repress apoptosis"}]}, {"molecule": "lymphotoxin (LT): lymphotoxin (LT) (protein, UniProt P01374 35-205, looked up) Lymphotoxin-alpha: LPGVGLTPSAAQTARQHPKMHLAHSTLKPAAHLIGDPSKQNSLLWRANTDRAFLQDGFSLSNNSLLVPTSGIYFVYSQVVFSGKAYSPKATSSPLYLAHEVQLFSSQYPFHVPLLSSQKMVYPGLQEPWLHSMYHGAAFQLTQGDQLSTHTDGIPHLVLSPSTVFFGAFAL", "values": [{"measurement": "Induction of apoptosis", "setting": "apoptosis", "result": "induced"}]}]}
